Laboratory results reported in patent US20120095739A1, “METHOD FOR DETERMINING THE EFFICACY OF A COMBINATION THERAPY” (priority 2009, published 2012).

Test system: HIV-1
Conditions: double robust estimation; for Weight (drug weight, PI): difference in viral load response (log scale) vs lopinavir after 8 weeks of stable treatment
Excerpt: Therefore, statistical models were applied to handle these differences. […] E.g.

Substance | difference in viral load change vs patients taking lopinavir (after 8 weeks of stable treatment) | Weight (drug weight, PI)
atazanavir [ATV/r] | −0.02 log viral load | −0.02
lopinavir [LPV/r] |  | 0
